Where “and” joins values, the source holds several entries; their conditions need not be identical. Equal entries are not always repeated.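 Interpolation was linear, between the two tested concentrations surrounding the appropriate level; five concentrations were tested over 48 hours in 96-well plates. GI50 marks 50% less growth. At the TGI there is no net growth.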
How the values were obtained:
Assay in all cases: NCI tumour cell line growth inhibition, 48 h
SF-295 CNS = tested on: SF-295 CNS
T-47D breast = tested on: T-47D breast
CCRF-CEM leukemia = tested on: CCRF-CEM leukemia
NCI-H226 lung = tested on: NCI-H226 lung
SR leukemia = tested on: SR leukemia
K-562 leukemia = tested on: K-562 leukemia
HOP-92 NSCLC = tested on: HOP-92 NSCLC
HS 578T breast = tested on: HS 578T breast
SF-268 CNS = tested on: SF-268 CNS
SW-620 colon = tested on: SW-620 colon
MOLT-4 leukemia = tested on: MOLT-4 leukemia
NCI-H522 lung = tested on: NCI-H522 lung
DU-145 prostate = tested on: DU-145 prostate
MDA-N = tested on: MDA-N
SK-MEL-28 melanoma = tested on: SK-MEL-28 melanoma
HL-60(TB) leukemia = tested on: HL-60(TB) leukemia
RXF 393 renal = tested on: RXF 393 renal
EKVX NSCLC = tested on: EKVX NSCLC
A498 renal = tested on: A498 renal
SK-MEL-2 melanoma = tested on: SK-MEL-2 melanoma
BT-549 breast = tested on: BT-549 breast
PC-3 prostate = tested on: PC-3 prostate
IGROV1 ovarian = tested on: IGROV1 ovarian
SNB-75 CNS = tested on: SNB-75 CNS
HCC-2998 colon = tested on: HCC-2998 colon
HCT-116 colon = tested on: HCT-116 colon
OVCAR-4 ovarian = tested on: OVCAR-4 ovarian
HCT-15 colon = tested on: HCT-15 colon
CAKI-1 renal = tested on: CAKI-1 renal
M14 melanoma = tested on: M14 melanoma
U251 CNS = tested on: U251 CNS
UACC-62 melanoma = tested on: UACC-62 melanoma
LOX IMVI melanoma = tested on: LOX IMVI melanoma
SK-OV-3 ovarian = tested on: SK-OV-3 ovarian
HT29 colon = tested on: HT29 colon
TK-10 renal = tested on: TK-10 renal
OVCAR-3 ovarian = tested on: OVCAR-3 ovarian
A549 NSCLC = tested on: A549 NSCLC
SNB-19 CNS = tested on: SNB-19 CNS
NCI-H460 lung = tested on: NCI-H460 lung
UO-31 renal = tested on: UO-31 renal
KM12 colon = tested on: KM12 colon
ACHN renal = tested on: ACHN renal
SF-539 CNS = tested on: SF-539 CNS
786-0 renal = tested on: 786-0 renal
MCF7 breast = tested on: MCF7 breast
NCI-H23 lung = tested on: NCI-H23 lung
NCI/ADR-RES ovarian = tested on: NCI/ADR-RES ovarian
COLO 205 colon = tested on: COLO 205 colon
HOP-62 NSCLC = tested on: HOP-62 NSCLC
SK-MEL-5 melanoma = tested on: SK-MEL-5 melanoma
OVCAR-5 ovarian = tested on: OVCAR-5 ovarian
OVCAR-8 ovarian = tested on: OVCAR-8 ovarian
SN12C renal = tested on: SN12C renal
UACC-257 melanoma = tested on: UACC-257 melanoma
MDA-MB-435 = tested on: MDA-MB-435
MDA-MB-231 breast = tested on: MDA-MB-231 breast

For `O=c1[nH]cc(F)c(=O)[nH]1`, the GI50 (SF-295 CNS) was 6.45 µM and 0.721 µM, the GI50 (T-47D breast) was 7.97 µM and 9.73 µM and 17.6 µM and the GI50 (CCRF-CEM leukemia) was 9.86 µM and 8.53 µM. For the same molecule, the TGI (CCRF-CEM leukemia) was 1990 µM and > 1040 µM, the GI50 (NCI-H226 lung) was 23.9 µM and 59.6 µM and 186 µM and the TGI (NCI-H226 lung) was > 100 µM and 2170 µM and > 2500 µM. The GI50 (SR leukemia) was 1.26 µM and 0.514 µM, the TGI (SR leukemia) was > 100 µM and > 33.4 µM and 609 µM and the GI50 (K-562 leukemia) was 4.75 µM and 12 µM. For the same molecule, the TGI (K-562 leukemia) was 2190 µM and > 1830 µM, the TGI (HOP-92 NSCLC) was > 100 µM and 2040 µM and > 2500 µM and the GI50 (HS 578T breast) was > 100 µM and 14.3 µM. For the same molecule, the TGI (HS 578T breast) was > 100 µM and 2250 µM and > 1170 µM, the TGI (SF-268 CNS) was > 100 µM and 2280 µM and > 2500 µM and the TGI (SW-620 colon) was > 100 µM and 2440 µM and > 2360 µM. For the same molecule, the GI50 (MOLT-4 leukemia) was 6.25 µM and 0.871 µM, the GI50 (NCI-H522 lung) was 11 µM and 11.5 µM and 82.9 µM and the TGI (DU-145 prostate) was > 100 µM and 2160 µM and > 2500 µM. For the same molecule, the TGI (MDA-N) was 2390 µM and > 2500 µM, the GI50 (SK-MEL-28 melanoma) was 5.99 µM and 1.5 µM and the TGI (HL-60(TB) leukemia) was > 100 µM and 1560 µM and 298 µM. The GI50 (RXF 393 renal) was 25.9 µM and 2.91 µM and 23.8 µM, the TGI (EKVX NSCLC) was > 100 µM and 2250 µM and > 2500 µM and the GI50 (A498 renal) was 4.81 µM and 5.2 µM. For the same molecule, the TGI (SK-MEL-2 melanoma) was > 100 µM and 2190 µM and > 2500 µM, the GI50 (BT-549 breast) was 7.32 µM and 6.94 µM and 27.1 µM and the TGI (BT-549 breast) was > 100 µM and 2090 µM and > 1390 µM. For the same molecule, the TGI (PC-3 prostate) was > 100 µM and 2250 µM and > 2500 µM, the GI50 (IGROV1 ovarian) was 6.13 µM and 2.37 µM and 20.6 µM and the TGI (SNB-75 CNS) was > 100 µM and 1990 µM and 2430 µM.

With `CCCCCCCCCCCCCCCCCCNC(=S)/N=C/c1c(O)cc(C)oc1=O` the TGI (SF-295 CNS) was 64.7 µM, the TGI (HCC-2998 colon) was 39 µM and the TGI (HCT-116 colon) was > 100 µM. For the same molecule, the TGI (OVCAR-4 ovarian) was 80 µM, the TGI (T-47D breast) was > 100 µM and the TGI (HCT-15 colon) was 62 µM. The TGI (CAKI-1 renal) was 64.1 µM, the TGI (M14 melanoma) was 41.9 µM and the TGI (NCI-H226 lung) was > 100 µM. The TGI (U251 CNS) was > 100 µM, the TGI (UACC-62 melanoma) was > 100 µM and the TGI (LOX IMVI melanoma) was > 100 µM. It also gave a TGI (SK-OV-3 ovarian) of 87.4 µM, a TGI (HT29 colon) of 76.8 µM and a TGI (TK-10 renal) of 35.9 µM. For the same molecule, the TGI (OVCAR-3 ovarian) was > 100 µM, the TGI (HOP-92 NSCLC) was > 100 µM and the TGI (SW-620 colon) was 96 µM. For the same molecule, the TGI (A549 NSCLC) was 69.5 µM, the TGI (MOLT-4 leukemia) was > 100 µM and the TGI (SNB-19 CNS) was 52.1 µM. The TGI (NCI-H460 lung) was > 100 µM, the TGI (UO-31 renal) was 39.4 µM and the TGI (KM12 colon) was 36.3 µM. The TGI (DU-145 prostate) was > 100 µM, the TGI (ACHN renal) was 65.4 µM and the TGI (SF-539 CNS) was 62.3 µM. For the same molecule, the TGI (786-0 renal) was > 100 µM, the TGI (MCF7 breast) was > 100 µM and the TGI (NCI-H23 lung) was 47.8 µM. For the same molecule, the TGI (MDA-N) was > 100 µM, the TGI (NCI/ADR-RES ovarian) was > 100 µM and the TGI (SK-MEL-28 melanoma) was > 100 µM. The TGI (HL-60(TB) leukemia) was > 100 µM, the TGI (EKVX NSCLC) was 57.9 µM and the TGI (COLO 205 colon) was > 100 µM. The TGI (HOP-62 NSCLC) was > 100 µM, the TGI (SK-MEL-5 melanoma) was > 100 µM and the TGI (OVCAR-5 ovarian) was 37.3 µM. For the same molecule, the TGI (OVCAR-8 ovarian) was 63.4 µM, the TGI (SN12C renal) was > 100 µM and the TGI (SK-MEL-2 melanoma) was 52.1 µM. The TGI (UACC-257 melanoma) was 65.3 µM, the TGI (BT-549 breast) was 40.6 µM and the TGI (PC-3 prostate) was 69.8 µM. For the same molecule, the TGI (MDA-MB-435) was 55.6 µM, the TGI (IGROV1 ovarian) was 55.8 µM and the TGI (SNB-75 CNS) was 49.3 µM. For the same molecule, the TGI (MDA-MB-231 breast) was > 100 µM.

Source: PubChem BioAssay (NCI)
